How the values were obtained:
[1] = tested on: Candida albicans fimbriae (binding to human BECs); test: Inhibition of fimbriae binding to human buccal epithelial cells (BECs); assay type: cell-based; settings: fimbriae 50 μg preincubated with competitor 1 h at 37° C.; 2.0×10^5 BECs; competitor concentration not stated
Protocol: The percent inhibition is the inhibition of binding in the presence of the competing antigens with respect to binding observed in the absence of any competitors.
The fimbrial adherence assay was performed using a Manifold filtration apparatus equipped with individual vacuum stopcocks (Model FH 225V, Hoefer Scientific Instruments). Polycarbonate filters, 12 μm pore size (Nucleopore Costar Corp.), were pre-incubated overnight at 4° C. with 50 ml of PBS pH 7.2, containing 0.45% (v/v) Tween 20. The pretreated filters were placed into each chamber and washed with 2.5 ml of PBS. 1 ml containing 2.0×10^5 BECs in PBS was added to each chamber. Enriched fimbriae (100 μl/chamber, ranging from 0 to 80 μg fimbriae protein/ml) in PBS containing 0.05% (v/v) Tween-20 was added to each chamber and incubated with the BECs for 1.5 hours at room temperature. Unbound fimbriae were removed with washes of 2.5 ml of PBS. Mouse anti-C. albicans fimbriae monoclonal antibody (ascites fluid diluted 1:3000 with PBS) was added to the BECs (1.2 ml/chamber) and incubated for 1.5 hour at room temperature. BECs were washed five times with 2.5 ml of PBS. Goat anti-mouse IgG(H+L)-peroxidase conjugates (Jackson Laboratories) diluted 1:5000 with PBS was added (1.0 ml/chamber) and incubated for another hour at room temperature. The cells were then washed seven times with 2.5 ml/chamber of PBS. The polycarbonate filters containing BECs were removed from the filtration manifold and placed into glass scintillation vials. The horseradish peroxidase substrate solution (ABTS) was added to each vial (1 ml/vial) and incubated for 30 min at room temperature on a shaker at 100 rpm. The reaction was stopped by the addition of 4 mM sodium azide (200 μl/vial). The substrate solution was pipetted into Eppendorf tubes and centrifuged at 5,000 g for 3 minutes. Aliquots of the supernatants were pipetted into microtiter wells (200 μl/well) and the resulting absorbance at 405 nm was recorded with a Titertek Multiskan Plus microplate recorder. […]

[2] = tested on: Candida albicans (binding to human buccal epithelial cells); test: Inhibition of C. albicans whole cell binding to human BECs; assay type: cell-based; settings: fungal cells exposed to increasing concentrations, then mixed with BECs
Protocol: Further experiments were carried out to determine the ability of βGalNAc(1-4)βGal-methylester ("GalNAcGal") to inhibit binding between whole BECs and Candida albicans.
C. albicans cells were radiolabelled as previously described by McEachran and Irvin (35, 48), incorporated herein by reference. A loopful of culture from Sabouraud-dextrose agar (GIBCO) was used as a source of inoculum for 10 ml of M9 medium supplemented with 0.4% (w/v) glucose. Cultures were incubated at 25° C. for 12 hours with 150 rpm agitation in G25 Gyrotory shaker (New Brunswick Scientific Co.). Cultures were supplemented with 5 μCi/ml of [^35 S]-L-methionine (New England Nuclear, Boston, Mass.) after 10 hours of incubation. […] The amount of [^35 S]-L-methionine incorporated by the C. albicans cells was determined by filtering 1.0 ml of a 1:100 dilution of washed C. albicans culture through a 0.2 μm polycarbonate filter (Nucleopore Corp., Pleasanton, Calif.) in triplicate, washing with 15 ml of PBS, and placing the filter in scintillation vials with 5.0 ml of Aquasol (New England Nuclear, Massachusettes). The counts per minute were determined with a Beckman LS-150 liquid-scintillation counter. […]
In a similar manner, experiments were carried out testing the ability of βGalNac(1-4)βGal to inhibit binding of C. albicans to BECs. […] Total cell counts were determined using a hemocytometer. […]

[3] = tested on: Candida albicans strain #40 fimbriae (enriched fimbriae EF, 66 kDa fimbrial subunit/adhesin protein); test: Inhibition of fimbriae binding to immobilized βGalNAc(1-4)βGal-BSA conjugate; settings: plates coated with 10 μg/ml conjugate; read-out: Half-maximal inhibition of fimbriae binding to βGalNAc(1-4)βGal-BSA conjugate
Protocol: Further experiments to determine the specificity of fimbrial binding to GSLs were carried out using a plate binding assay, as described above, but immobilizing on the plates a βGalNAc(1-4)βGal-BSA conjugate, synthesized from βGalNAc(1-4)βGal-O(CH2)8 COOCH3 (Sabesan and Lemieux), as described in Part B, above. The coupling ratio of disaccharide: BSA was 12:1. The protocol utilized for this assay was similar to that employed for the assessment of C. albicans fimbriae binding to GSLs except that the plates were coated with 100 μl/well of a 10 μg/ml solution of synthetic βGalNAc(1-4)βGal-BSA conjugate in 0.01M carbonate buffer, pH 9.5.
Using this assay, it was first determined that fimbriae bind to the βGalNAc(1-4)βGal-BSA conjugate in a saturable, concentration-dependent manner. FIGS. 12A and 12B show the results of experiments in which compounds were tested for ability to inhibit binding of fimbriae to the βGalNAc(1-4)βGal-BSA conjugate. The protocol used in this assay was similar to the one used in the GSL inhibition assay described above, except that the plates were coated with 100 μl/well of a 10 μg/ml solution of synthetic βGalNAc(1-4)βGal-BSA conjugate in 0.01M carbonate buffer, pH 9.5. As depicted in FIG. 12A, βGalNAc(1-4)βGal-methylester ("GalNAcGal") was able to inhibit binding to the GalNAcGal-BSA conjugate in a concentration dependent manner. […]

[4] = tested on: Candida albicans strain #40 fimbriae (enriched fimbriae EF, 66 kDa fimbrial subunit/adhesin protein); test: Thin-layer chromatography plate binding assay of fimbriae to glycosphingolipids; settings: 10 μg GSL per spot; 100 μg EF/ml; detected with mAb Fm16
Protocol: Bound fimbriae on the TLC plates were visualized with a Protein G affinity-purified anti-C. albicans fimbriae monoclonal antibody, Fm16, obtained from ascites tumor in Balb/c mice as described below and a goat anti-mouse IgG alkaline phosphatase. […] (Lane 2).
The thin-layer chromatography (TLC) plate binding assay was performed as described by Baker et al. (1) with minor modifications. Aluminum-backed silica gel Si60 high performance TLC plates (Merck Kieselgel Si60, no fluorescence indicator, E. Merck, Darmstadt, Germany) were cut to produce 8×2.5 cm plates which were chromatographed with 100% methanol to the top of the plate to remove impurities and the plates were air dried. Glycosphingolipids (GSLs) (10 μg of each GSL) were loaded 1.0 cm above the base of the plate. The following glycosphingolipids purchased from Sigma Co. (St. Louis, Mo.) were used: mono-sialoganglioside (M-GM1), asialoganglioside GM1 (asialo-GM1), asialoganglioside GM2 (asialo-GM2), lactosylcerebroside (LCS), ceramide trihexoside (CTH). GSLs were separated on the TLC plates in chloroform-methanol-water (65:35:8, v/v/v) and air dried. One set of plates was sprayed with 10% sulphuric acid in ethanol and heated at 100°-150° C. for 5-10 min to char the GSLs for visual detection, and the other set was used for the fimbrial binding assay. The four corners of the plate were bent to 90° and the remainder of the assay was done with the TLC plates inverted in all solutions and at room temperature in an incubator shaker (model G25 Gyroshaker, New Brunswick Scientific, New Jersey, U.S.A.) at 20 rpm agitation. The TLC plate was blocked with 50 mM tris-hydroxy-methyl aminomethane pH 7.5 containing 150 mM NaCl (TBS), 0.25% (w/v) gelatin, 3% (w/v) BSA, 5 mM EDTA and 0.05% (v/v) Nonidet P40 in a glass petri dish for 2 hr at room temperature. The blocking solution was aspirated and 10 ml of EF (100 μg EF/ml in 100 mM TBS, pH 7.5) was then added. The fimbriae were allowed to bind to GSLs for 2 hours at room temperature. The plates were gently washed (2×5 min) with 10 ml of 100 mM TBS containing 0.1% (v/v) Tween 20 (TBST). The murine anti-EF monoclonal antibody, Fm16, was diluted 1:200 with TBST and 10 ml was added to the TLC plates. The solution was incubated for 1 hour at room temperature. Unbound antibodies were removed by washing the plates with 10 ml of TBST (2×5 min). The plate was then incubated with 10 ml of goat anti-mouse immunoglobulin G alkaline phosphatase conjugate (Jackson Laboratories) diluted 1:5,000 with TBST for 1 hour at room temperature. The plates were washed (2×5 min.) with 10 ml of TBST. The alkaline phosphatase activity was localized with Nitro Blue Tetrazolium chloride (NBT) and 5-bromo-4-chloro-3-indolyl phosphate (BCIP) dissolved in 100 mM Tris buffer, pH 9.5 containing 100 mM NaCl and 5 mM MgCl2. Color development was quenched by rinsing the TLC plate with deionized water and submerging the plate into a 150 mM EDTA solution pH 8.0 for 3-5 min. The plates were air dried, stored in plastic in the dark until they were photographed.

Molecule | Inhibition of C. albicans fimbriae binding to BECs [1] | Inhibition of binding between whole BECs and Candida albicans [2] | IC50 [3] | Binding of C. albicans fimbriae to glycosphingolipid on TLC plate [4]
COC(=O)CCCCCCCCO[C@@H]1O[C@H](CO)[C@H](O[C@@H]2O[C@H](CO)[C@H](O)[C@H](O)[C@H]2NC(C)=O)[C@H](O)[C@H]1O [βGalNAc(1-4)βGal-methylester] | 70% | inhibited the fungal cell-BEC interaction in a concentration dependent manner | 8.2 µM | 
gangliotriosylceramide: βGalNAc(1-4)βGal(1-4)βGlc(1-1)Cer [asialo-GM2] |  |  |  | bind specifically
lactosyl cerebroside [LCS] |  |  |  | failed to bind
mono-sialoganglioside [GM1] |  |  |  | failed to bind

Source: patent US5641760A, “Method of treating candida infection” (Pence, Inc., priority 1994, dated 1997)
